Data as given in patent US20240150377A1, “MODULATORS OF CYSTIC FIBROSIS TRANSMEMBRANE CONDUCTANCE REGULATOR” (VERTEX PHARMACEUTICALS INCORPORATED, priority 2020, published 2024).
pEC50: −log10 of the molar value. Where two headings read alike, the source gives them in different places.

Tests used:
[1] = 13-membered ring, DMF
[2] = amide bond, 13-membered ring, DMF
F508del = target: T1, F508del (Homo sapiens, UniProt P13569, DEL508-508); test: 3T3 assay: membrane potential optical assay for F508del correction; format: cell-based; settings: Table 6, F508del NIH 3T3 cells; for Emax: NIH3T3, compared to lumacaftor in combination with acutely added 300 nM Ivacaftor, read-out: 3T3 Max Activity; for pEC50: 18-24 hours at 37° C., forskolin, acutely added 300 nM Ivacaftor
T1 construct: expressed in transfected cells
Source text: 1. Membrane Potential Optical Methods for Assaying F508del Modulation Properties of Compounds
The assay utilizes fluorescent voltage sensing dyes to measure changes in membrane potential using a fluorescent plate reader (e.g., FLIPR III, Molecular Devices, Inc.) as a readout for increase in functional F508del in NIH 3T3 cells. The driving force for the response is the creation of a chloride ion gradient in conjunction with channel activation by a single liquid addition step after the cells have previously been treated with compounds and subsequently loaded with a voltage sensing dye.
2. Identification of Corrector Compounds
To identify correctors of F508del, a single-addition HTS assay format was developed. This HTS assay utilizes fluorescent voltage sensing dyes to measure changes in membrane potential on the FLIPR III as a measurement for increase in gating (conductance) of F508del in F508del NIH 3T3 cells. The F508del NIH 3T3 cell cultures were incubated with the corrector compounds at a range of concentrations for 18-24 hours at 37° C., and subsequently loaded with a redistribution dye. The driving force for the response is a Cl^− ion gradient in conjunction with channel activation with forskolin in a single liquid addition step using a fluorescent plate reader such as FLIPR III.
Bath Solution #1: (in mM) NaCl 160, KCl 4.5, CaCl2) 2, MgCl2 1, HEPES 10, pH 7.4 with NaOH.
Chloride-free bath solution: Chloride salts in Bath Solution #1 (above) are substituted with gluconate salts.
NIH3T3 mouse fibroblasts stably expressing F508del are used for optical measurements of membrane potential. The cells are maintained at 37° C. in 5% CO2 and 90% humidity in Dulbecco's modified Eagle's medium supplemented with 2 mM glutamine, 10% fetal bovine serum, 1× NEAA, b-ME, 1×pen/strep, and 25 mM HEPES in 175 cm^2 culture flasks. For all optical assays, the cells were seeded at ˜20,000/well in 384-well Matrigel-coated plates. For the correction assays, the cells are cultured at 37° C. with and without compounds for 16-24 hours.

CFTR = CFTR (Homo sapiens, UniProt P13569); test: Membrane potential dye, Enteroid Assay A; format: cell-based; settings: Table 6; for Ent. A Max Activity: chloride transport as % of triple combination control (Enteroid Assay A); for pEC50: human enteroid cells, 18-24 hours, acute 10 μM forskolin and 300 nM ivacaftor, read-out: Ent. A EC50
Summary of the method: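 % Activity: chloride transport relative to a 3 μM/3 μM corrector pair plus 300 nM acute potentiator control. Primary human enteroid cells, 18-24 h compound exposure at 37 °C; membrane potential dye (methyl oxonol) fluorescence over 15 min after forskolin (10 μM)/IBMX (100 μM)/Compound III (300 nM) stimulation in chloride-free buffer.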

Sequence of CFTR (P13569 with tags, fused parts or gaps DEL508-508): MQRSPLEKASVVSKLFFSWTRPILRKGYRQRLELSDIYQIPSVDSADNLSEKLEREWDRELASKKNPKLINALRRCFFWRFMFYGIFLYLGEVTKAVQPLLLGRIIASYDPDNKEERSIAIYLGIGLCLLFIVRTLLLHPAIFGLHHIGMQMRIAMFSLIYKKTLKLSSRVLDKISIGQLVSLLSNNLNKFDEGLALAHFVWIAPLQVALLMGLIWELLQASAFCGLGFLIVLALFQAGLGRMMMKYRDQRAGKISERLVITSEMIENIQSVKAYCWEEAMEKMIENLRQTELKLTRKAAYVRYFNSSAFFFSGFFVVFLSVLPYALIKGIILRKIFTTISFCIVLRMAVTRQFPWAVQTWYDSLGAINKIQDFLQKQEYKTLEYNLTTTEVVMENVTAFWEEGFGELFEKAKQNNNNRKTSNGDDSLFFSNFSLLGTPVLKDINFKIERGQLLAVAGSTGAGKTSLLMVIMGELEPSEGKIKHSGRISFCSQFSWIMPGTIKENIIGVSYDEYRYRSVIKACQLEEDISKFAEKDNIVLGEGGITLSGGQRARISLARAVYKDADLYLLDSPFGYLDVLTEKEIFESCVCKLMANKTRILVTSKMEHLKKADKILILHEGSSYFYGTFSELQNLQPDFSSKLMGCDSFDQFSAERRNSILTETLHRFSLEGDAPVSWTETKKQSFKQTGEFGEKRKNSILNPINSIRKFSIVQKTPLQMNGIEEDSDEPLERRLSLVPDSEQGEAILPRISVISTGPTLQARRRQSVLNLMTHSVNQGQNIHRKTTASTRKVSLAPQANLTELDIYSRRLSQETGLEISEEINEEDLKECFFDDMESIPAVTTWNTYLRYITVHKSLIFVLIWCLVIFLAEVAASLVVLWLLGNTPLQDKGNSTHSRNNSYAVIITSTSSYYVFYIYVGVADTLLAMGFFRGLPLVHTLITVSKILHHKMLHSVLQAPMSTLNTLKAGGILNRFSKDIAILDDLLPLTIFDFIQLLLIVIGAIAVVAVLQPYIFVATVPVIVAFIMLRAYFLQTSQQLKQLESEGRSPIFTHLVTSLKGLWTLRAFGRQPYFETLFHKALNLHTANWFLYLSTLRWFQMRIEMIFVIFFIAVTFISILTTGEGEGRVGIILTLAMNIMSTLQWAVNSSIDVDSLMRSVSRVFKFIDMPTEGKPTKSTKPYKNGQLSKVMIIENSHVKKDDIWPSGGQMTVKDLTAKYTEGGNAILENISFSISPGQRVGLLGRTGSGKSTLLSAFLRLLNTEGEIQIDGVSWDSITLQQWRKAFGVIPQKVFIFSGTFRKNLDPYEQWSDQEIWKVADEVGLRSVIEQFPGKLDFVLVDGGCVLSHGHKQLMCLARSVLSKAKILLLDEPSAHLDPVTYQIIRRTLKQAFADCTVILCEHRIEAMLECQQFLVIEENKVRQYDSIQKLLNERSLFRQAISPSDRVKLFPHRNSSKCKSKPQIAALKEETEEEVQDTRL
T1 sequence (P13569 with tags, fused parts or gaps DEL508-508): as above

SMILES: CCC(C)(C)CC1COc2cc(-c3c(C)cccc3C)nc(n2)NS(=O)(=O)c2cccc(c2)C(=O)N1Cc1cncc(N(C)C2CCC2)n1 (stereo not shown)
- ring closure, isolated yield ([1]; from CCC(C)(C)CC(COc1cc(-c2c(C)cccc2C)nc(NS(=O)(=O)c2cccc(C(=O)O)c2)n1)NCc1cncc(N(C)C2CCC2)n1, amide bond, CDMT/NMM, 19.5 mM, 16.2 h): 65%

SMILES: COCN1c2nc(cc(-c3c(C)cccc3C)n2)OC[C@@H](CC(C)(C)C)NC(=O)c2cccc(c2)S1(=O)=O
- ring closure, isolated yield ([1]; from COCN(c1nc(OC[C@H](N)CC(C)(C)C)cc(-c2c(C)cccc2C)n1)S(=O)(=O)c1cccc(C(=O)O)c1, amide bond, HATU/DIEA, 107.6 mM, 0.33 h): 39%

SMILES: Cc1cccc(C)c1-c1cc2nc(n1)NS(=O)(=O)c1cccc(c1)C(=O)N(CC1CC3(CCN(C(=O)OC(C)(C)C)CC3)C1)[C@H](CC(C)C)CO2
- ring closure, isolated yield ([1]; from Cc1cccc(C)c1-c1cc(OC[C@@H](CC(C)C)NCC2CC3(CCN(C(=O)OC(C)(C)C)CC3)C2)nc(NS(=O)(=O)c2cccc(C(=O)O)c2)n1, amide bond, HATU/DIEA, 9.3 mM, 25.0 °C, 2.0 h, 2 steps): 33%

SMILES: Cc1cccc(C)c1-c1cc2nc(n1)NS(=O)(=O)c1cccc(c1)C(=O)N(CCC1CCN(C(=O)OC(C)(C)C)CC1)[C@H](CC(C)C)CO2
- ring closure, isolated yield ([1]; from Cc1cccc(C)c1-c1cc(OC[C@@H](CC(C)C)NCCC2CCN(C(=O)OC(C)(C)C)CC2)nc(NS(=O)(=O)c2cccc(C(=O)O)c2)n1, amide bond, HATU/TEA, 125.0 mM, 25.0 °C, 1.0 h, 2 steps): 94%

SMILES: Cc1cccc(C)c1-c1cc2nc(n1)NS(=O)(=O)c1cccc(c1)C(=O)N(CCCO[Si](C)(C)C(C)(C)C)[C@H](CC(C)C)CO2
- ring closure, isolated yield ([1]; from Cc1cccc(C)c1-c1cc(OC[C@@H](CC(C)C)NCCCO[Si](C)(C)C(C)(C)C)nc(NS(=O)(=O)c2cccc(C(=O)O)c2)n1, amide bond, COMU/DIEA, 19.9 mM, 22.0 h): 43%

SMILES: Cc1cccc(C)c1-c1cc2nc(n1)NS(=O)(=O)c1cccc(c1)C(=O)N(Cc1ccc3c(I)cn(C)c3n1)[C@H](CC(C)(C)C)CO2
- ring closure, isolated yield ([1]; from Cc1cccc(C)c1-c1cc(OC[C@@H](CC(C)(C)C)NCc2ccc3c(I)cn(C)c3n2)nc(NS(=O)(=O)c2cccc(C(=O)O)c2)n1, amide bond, 2-chloro-1-methylpyridinium iodide/DIEA, 35.1 mM, 16.0 h): 61%

SMILES: Cc1cccc(C)c1-c1cc2nc(n1)NS(=O)(=O)c1cccc(c1)C(=O)N(Cc1ccc3cc(I)n(C)c3n1)[C@H](CC(C)(C)C)CO2
- ring closure, isolated yield ([1]; from Cc1cccc(C)c1-c1cc(OC[C@@H](CC(C)(C)C)NCc2ccc3cc(I)n(C)c3n2)nc(NS(=O)(=O)c2cccc(C(=O)O)c2)n1, amide bond, 2-chloro-1-methylpyridinium iodide/DIEA, 41.5 mM, 16.0 h): 72%

SMILES: Cc1cccc(C)c1-c1cc2nc(n1)NS(=O)(=O)c1cccc(c1)C(=O)N(Cc1cccc(NC(=O)OC(C)(C)C)n1)[C@H](CC(C)(C)C)CO2
- ring closure, isolated yield ([1]; from Cc1cccc(C)c1-c1cc(OC[C@@H](CC(C)(C)C)NCc2cccc(NC(=O)OC(C)(C)C)n2)nc(NS(=O)(=O)c2cccc(C(=O)O)c2)n1, amide bond, HATU/DIEA, 16.0 h, 2 steps): 31%

SMILES: Cc1cccc(C)c1-c1cc2nc(n1)NS(=O)(=O)c1cccc(c1)C(=O)N(Cc1cncc(Cl)n1)[C@H](CC(C)(C)C)CO2
- ring closure, isolated yield ([1]; from Cc1cccc(C)c1-c1cc(OC[C@@H](CC(C)(C)C)NCc2cncc(Cl)n2)nc(NS(=O)(=O)c2cccc(C(=O)O)c2)n1, amide bond, CDMT/NMM, 12.4 mM, 25.0 °C, 16.5 h): 56%

SMILES: Cc1cccc(C)c1-c1cc2nc(n1)NS(=O)(=O)c1cccc(c1)C(=O)N(Cc1cncc(Cl)n1)[C@H](CC1CCCCC1)CO2
- ring closure, isolated yield ([1]; from Cc1cccc(C)c1-c1cc(OC[C@@H](CC2CCCCC2)NCc2cncc(Cl)n2)nc(NS(=O)(=O)c2cccc(C(=O)O)c2)n1, amide bond, CDMT/NMM, 20.4 mM, 16.2 h): 73%

SMILES: Cc1cccc(C)c1-c1cc2nc(n1)NS(=O)(=O)c1cccc(c1)C(=O)N(Cc1cncc(Cl)n1)[C@H](COC1CC1)CO2
- ring closure, isolated yield ([1]; from Cc1cccc(C)c1-c1cc(OC[C@@H](COC2CC2)NCc2cncc(Cl)n2)nc(NS(=O)(=O)c2cccc(C(=O)O)c2)n1, amide bond, CDMT/NMM, 12.9 mM, 21.0 h): 97%

SMILES: Cc1cccc(C)c1-c1cc2nc(n1)NS(=O)(=O)c1cccc(c1)C(=O)N(Cc1cncc(N(C)C3CCC3)n1)C1(CCC(C)(C)C1)CO2 (stereo not shown)
- ring closure, isolated yield ([1]; from Cc1cccc(C)c1-c1cc(OCC2(NCc3cncc(N(C)C4CCC4)n3)CCC(C)(C)C2)nc(NS(=O)(=O)c2cccc(C(=O)O)c2)n1, amide bond, CDMT/NMM, 18.1 mM, 120.0 h): 36%

SMILES: Cc1cccc(C)c1-c1cc2nc(n1)NS(=O)(=O)c1cccc(c1)C(=O)N(Cc1cncc(N3CCCC[C@H]3C)n1)C(CCC(C)(C)F)CO2 (stereo partly shown)
- ring closure, isolated yield ([1]; from Cc1cccc(C)c1-c1cc(OCC(CCC(C)(C)F)NCc2cncc(N3CCCC[C@H]3C)n2)nc(NS(=O)(=O)c2cccc(C(=O)O)c2)n1, amide bond, CDMT/NMM, 19.8 mM, 16.0 h): 54%

SMILES: Cc1cccc(C)c1-c1cc2nc(n1)NS(=O)(=O)c1cccc(c1)CN(C(=O)OC(C)(C)C)[C@H](CC(C)C)CO2
- ring closure, isolated yield ([1]; from Cc1cccc(C)c1-c1cc(OC[C@@H](CC(C)C)NC(=O)OC(C)(C)C)nc(NS(=O)(=O)c2cccc(COS(C)(=O)=O)c2)n1, amine bond, NaH, 3.92 mM, 25.0 °C): 50%

SMILES: Cc1cccc(C)c1-c1cc2nc(n1)NS(=O)(=O)c1cccc(c1)C(=O)N(C)[C@H](CC(C)C)[C@H](CC(C)C)O2 [Compound 2, (10S,11R)-6-(2,6-Dimethylphenyl)-12-methyl-10,11-bis(2-methylpropyl)-9-oxa-2λ^6-thia-3,5,12,19-tetraazatricyclo[12.3.1.14,8]nonadeca-1(18),4(19),5,7,14,16-hexaene-2,2,13-trione]
- ring closure, yield after HPLC ([2]; from CN[C@H](CC(C)C)[C@H](CC(C)C)Oc1cc(-c2c(C)cccc2C)nc(NS(=O)(=O)c2cccc(C(=O)O)c2)n1, HATU/TEA, 18.8 mM, 15.0 h): 47%
- Emax (F508del): > 60%
- pEC50 (F508del): > 6.00
- Ent. A Max Activity (CFTR): +++ (+++ is >60%)
- pEC50 (CFTR): > 6.00

SMILES: Cc1cccc(C)c1-c1cc2nc(n1)NS(=O)(=O)c1cccc(c1)C(=O)N(CC(C)C)CCO2 [Compound 4, 6-(2,6-Dimethylphenyl)-12-isobutyl-2,2-dioxo-9-oxa-2λ^6-thia-3,5,12,19-tetrazatricyclo[12.3.1.14,8]nonadeca-1(18),4(19),5,7,14,16-hexaen-13-one]
- ring closure, yield after HPLC ([2]; from Cc1cccc(C)c1-c1cc(OCCNCC(C)C)nc(NS(=O)(=O)c2cccc(C(=O)O)c2)n1, HATU/TEA, 91.6 mM, 0.5 h): 48%
- Emax (F508del): > 60%
- pEC50 (F508del): > 6.00
- Ent. A Max Activity (CFTR): +++ (+++ is >60%)
- pEC50 (CFTR): > 6.00

SMILES: Cc1cccc(C)c1-c1cc2nc(n1)NS(=O)(=O)c1cccc(c1)C(=O)N(CCC1(C(F)(F)F)CC1)[C@H](CC(C)C)CO2 [Compound 37, (11R)-6-(2,6-Dimethylphenyl)-11-(2-methylpropyl)-12-{2-[1-(trifluoromethyl)cyclopropyl]ethyl}-9-oxa-2λ^6-thia-3,5,12,19-tetraazatricyclo[12.3.1.14,8]nonadeca-1(17),4(19),5,7,14(18),15-hexaene-2,2,13-trione]
- ring closure, yield after HPLC ([2]; from Cc1cccc(C)c1-c1cc(OC[C@@H](CC(C)C)NCCC2(C(F)(F)F)CC2)nc(NS(=O)(=O)c2cccc(C(=O)O)c2)n1, HATU/DIEA, 25.2 mM, 25.0 °C, 1.0 h): 37%
- Emax (F508del): > 60%
- pEC50 (F508del): > 6.00
- Ent. A Max Activity (CFTR): +++ (+++ is >60%)
- pEC50 (CFTR): > 6.00

SMILES: Cc1cccc(C)c1-c1cc2nc(n1)NS(=O)(=O)c1cccc(c1)C(=O)N(CC1CC3(CCOCC3)C1)[C@H](CC(C)C)CO2 [Compound 40, (11R)-6-(2,6-Dimethylphenyl)-11-isobutyl-12-(7-oxaspiro[3.5]nonan-2-ylmethyl)-2,2-dioxo-9-oxa-2λ^6-thia-3,5,12,19-tetrazatricyclo[12.3.1.14,8]nonadeca-1(18),4(19),5,7,14,16-hexaen-13-one]
- ring closure, yield after HPLC ([2]; from Cc1cccc(C)c1-c1cc(OC[C@@H](CC(C)C)NCC2CC3(CCOCC3)C2)nc(NS(=O)(=O)c2cccc(C(=O)O)c2)n1, HATU/DIEA, 18.8 mM, 1.0 h): 63%
- Emax (F508del): > 60%
- pEC50 (F508del): > 6.00
- Ent. A Max Activity (CFTR): +++ (+++ is >60%)
- pEC50 (CFTR): > 6.00
